Reference: PubChem BioAssay AID651592 (Sanford-Burnham Center for Chemical Genomics, 2012)

What was measured:
[1] = inhibitors of NFkB activation in CF airway cells, SAR follow-up, KKLEB cells, panel, IL8 HTRF, NFkB-GFP (AID 651592); conditions: PAF/TNFa-induced NFkB-GFP / IL8 HTRF, CF-PAF assay;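 note: immortalized cystic fibrosis airway epithelial KKLEB cells with an NF-kB GFP reporter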
[2] = test system: IL8; test: as above; conditions: PAF/TNFa-induced NFkB-GFP / IL8 HTRF, mean of runs, mean IC50 across panel replicates
[3] = target: Interleukin-8 (Homo sapiens) (UniProt P10145); test: as above; conditions: PAF/TNFa-induced NFkB-GFP / IL8 HTRF
[4] = mean of runs, mean IC50 across panel replicates

Sequence of Interleukin-8 (Homo sapiens) (P10145 whole entry, looked up): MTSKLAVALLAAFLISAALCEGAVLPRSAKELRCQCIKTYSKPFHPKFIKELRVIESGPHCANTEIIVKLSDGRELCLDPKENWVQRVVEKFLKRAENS

| Compound | IC50 [1, 4] | IC50 ([1]; run 1) | IC50 ([1]; run 2) | IC50 ([1]; run 3) | IC50 ([1]; run 4) | IC50 ([1]; run 5) | IC50 ([1]; run 6) | IC50 ([2]; PAF-induced) | IC50 ([2]; TNFa-induced) | IC50 ([3]; IL8, PAF-induced, run 1) | IC50 ([3]; IL8, PAF-induced, run 2) | IC50 ([3]; IL8, PAF-induced, run 3) | IC50 ([3]; IL8, PAF-induced, run 4) | IC50 ([3]; IL8, PAF-induced, run 5) | IC50 ([3]; IL8, PAF-induced, run 6) | IC50 ([3]; IL8, TNFa-induced, run 1) | IC50 ([3]; IL8, TNFa-induced, run 2) | IC50 ([3]; IL8, TNFa-induced, run 3) | IC50 ([3]; IL8, TNFa-induced, run 4) | IC50 ([3]; IL8, TNFa-induced, run 5) | further results |
| --- | --- | --- | --- | --- | --- | --- | --- | --- | --- | --- | --- | --- | --- | --- | --- | --- | --- | --- | --- | --- | --- |
| O=C(Nc1ccc(N2CCN(C(=O)c3ccc(F)cc3)CC2)cc1)c1ccccn1 | > 66 µM | > 66 µM | > 66 µM | > 66 µM | > 66 µM | > 66 µM | > 66 µM | > 66 µM | > 66 µM | > 66 µM | > 66 µM | > 66 µM | > 66 µM | > 66 µM | > 66 µM | > 66 µM | > 66 µM | > 66 µM | > 66 µM | > 66 µM | IC50 ([3]; IL8, TNFa-induced, run 6): > 66 µM |
| O=C(Nc1ccc(N2CCN(C(=O)c3ccccc3)CC2)cc1)c1cc(Br)cc(Br)c1 | > 66 µM | > 66 µM | > 66 µM | > 66 µM | > 66 µM | > 66 µM | > 66 µM | > 66 µM | > 66 µM | > 66 µM | > 66 µM | > 66 µM | > 66 µM | > 66 µM | > 66 µM | > 66 µM | > 66 µM | > 66 µM | > 66 µM | > 66 µM | IC50 ([3]; IL8, TNFa-induced, run 6): > 66 µM |
| Cc1ccc(CNCc2cc3c(C(C)(C)C)nn(-c4ccccc4)c3[nH]c2=O)cc1 | 60 µM | > 66 µM | > 66 µM | > 66 µM | > 66 µM | > 66 µM | 30.1 µM | 14.6 µM | > 66 µM | 7.97 µM | 12.8 µM | 14.6 µM | 16.6 µM | 17 µM | 18.6 µM | > 66 µM | > 66 µM | > 66 µM | > 66 µM | > 66 µM | IC50 ([3]; IL8, TNFa-induced, run 6): > 66 µM |
| O=C(Nc1ccc(N2CCN(C(=O)c3ccccc3F)CC2)cc1)c1ccccc1 | 37.5 µM | 8.36 µM | 9.34 µM | 9.4 µM | > 66 µM | > 66 µM | > 66 µM | > 66 µM | 55.7 µM | > 66 µM | > 66 µM | > 66 µM | > 66 µM | > 66 µM | > 66 µM | > 66 µM | > 66 µM | 4.29 µM | > 66 µM | > 66 µM | IC50 ([3]; IL8, TNFa-induced, run 6): > 66 µM |
| CCOc1ccc(NCc2cc3c(C(C)(C)C)nn(-c4ccccc4)c3[nH]c2=O)cc1 | 25.5 µM | 12.8 µM | 20.1 µM | 22.3 µM | > 66 µM | 13 µM | 19 µM | 4 µM | > 66 µM | 2.61 µM | 3.3 µM | 3.37 µM | 4.49 µM | 4.57 µM | 5.68 µM | > 66 µM | > 66 µM | > 66 µM | > 66 µM | > 66 µM | IC50 ([3]; IL8, TNFa-induced, run 6): > 66 µM |
| O=C(Nc1ccc(N2CCN(C(=O)c3ccccc3Cl)CC2)cc1)c1ccccn1 | 39.5 µM | 8.15 µM | 14.4 µM | 16.5 µM | > 66 µM | > 66 µM | > 66 µM | 19 µM | > 66 µM | > 66 µM | 12.5 µM | 19.7 µM | 3.66 µM | 5.84 µM | 53.2 µM | > 66 µM | > 66 µM | > 66 µM | > 66 µM | > 66 µM | IC50 ([3]; IL8, TNFa-induced, run 6): > 66 µM |
| O=C(Nc1ccc(N2CCN(C(=O)c3ccccc3Cl)CC2)cc1)c1cccc(Br)c1 | 39.8 µM | > 66 µM | 16.8 µM | 24.3 µM | > 66 µM | > 66 µM | > 66 µM | 55 µM | > 66 µM | > 66 µM | > 66 µM | > 66 µM | > 66 µM | > 66 µM | > 66 µM | > 66 µM | > 66 µM | > 66 µM | > 66 µM | > 66 µM | IC50 ([3]; IL8, TNFa-induced, run 6): > 66 µM |

Further lines, with some results ahead:

| IC50 [1, 4] | IC50 ([1]; run 1) | IC50 ([1]; run 2) | IC50 ([1]; run 3) | IC50 ([1]; run 4) | IC50 ([1]; run 5) | IC50 ([1]; run 6) | IC50 ([2]; PAF-induced) | IC50 ([2]; TNFa-induced) | IC50 ([3]; IL8, PAF-induced, run 1) | IC50 ([3]; IL8, PAF-induced, run 2) | IC50 ([3]; IL8, PAF-induced, run 3) | IC50 ([3]; IL8, PAF-induced, run 4) | IC50 ([3]; IL8, PAF-induced, run 5) | IC50 ([3]; IL8, PAF-induced, run 6) | IC50 ([3]; IL8, TNFa-induced, run 1) | IC50 ([3]; IL8, TNFa-induced, run 2) | IC50 ([3]; IL8, TNFa-induced, run 3) | IC50 ([3]; IL8, TNFa-induced, run 4) | IC50 ([3]; IL8, TNFa-induced, run 5) | Compound | further results |
| --- | --- | --- | --- | --- | --- | --- | --- | --- | --- | --- | --- | --- | --- | --- | --- | --- | --- | --- | --- | --- | --- |
| > 66 µM | > 66 µM | > 66 µM | > 66 µM | > 66 µM | > 66 µM | > 66 µM | > 66 µM | > 66 µM | > 66 µM | > 66 µM | > 66 µM | > 66 µM | > 66 µM | > 66 µM | > 66 µM | > 66 µM | > 66 µM | > 66 µM | > 66 µM | O=C(Nc1ccc(N2CCN(C(=O)c3ccc(F)cc3)CC2)cc1)c1cc(Br)cc(Br)c1 | IC50 ([3]; IL8, TNFa-induced, run 6): > 66 µM |
| 11.8 µM | 7.29 µM | 8.71 µM | 9.34 µM | 5.23 µM | 11.3 µM | 29 µM | 35.5 µM | 55.5 µM | > 66 µM | > 66 µM | > 66 µM | 1.15 µM | 3.67 µM | 10 µM | > 66 µM | > 66 µM | 2.69 µM | > 66 µM | > 66 µM | O=C(Nc1ccc(N2CCN(C(=O)c3ccccc3Cl)CC2)cc1)c1ccncc1 | IC50 ([3]; IL8, TNFa-induced, run 6): > 66 µM |
| 41.4 µM | 38.3 µM | 39.4 µM | 46.4 µM | > 66 µM | > 66 µM | > 66 µM | > 66 µM | > 66 µM | > 66 µM | > 66 µM | > 66 µM | > 66 µM | > 66 µM | > 66 µM | > 66 µM | > 66 µM | > 66 µM | > 66 µM | > 66 µM | O=C(Nc1ccc(N2CCN(C(=O)c3ccc(F)cc3)CC2)cc1)c1cccnc1 | IC50 ([3]; IL8, TNFa-induced, run 6): > 66 µM |
| 9.11 µM | 14.2 µM | 15.7 µM | 18.1 µM | 1.81 µM | 2.36 µM | 2.48 µM | 0.522 µM | 57.5 µM | 0.434 µM | 0.974 µM | 1.05 µM | 0.181 µM | 0.244 µM | 0.248 µM | > 66 µM | > 66 µM | > 66 µM | > 66 µM | > 66 µM | CCOc1ccc(NCc2cc3c(-c4ccc(F)cc4)nn(-c4ccccc4)c3[nH]c2=O)cc1 | IC50 ([3]; IL8, TNFa-induced, run 6): 14.8 µM |
| 4.12 µM | 3.91 µM | 4.12 µM | 4.31 µM | < 10 µM | < 10 µM | < 10 µM | 29.9 µM | 45.5 µM | > 66 µM | > 66 µM | 16.7 µM | < 10 µM | < 10 µM | 10.6 µM | > 66 µM | > 66 µM | > 66 µM | > 66 µM | > 66 µM | O=C(Nc1ccc(N2CCN(C(=O)c3ccccc3Cl)CC2)cc1)c1ccccc1 | IC50 ([3]; IL8, TNFa-induced, run 6): 8.88 µM |
| 25.2 µM | 18.7 µM | 44.7 µM | 48 µM | 10.4 µM | 12.9 µM | 16.3 µM | 1.62 µM | > 66 µM | 1.25 µM | 1.71 µM | 1.85 µM | 1.33 µM | 1.66 µM | 1.89 µM | > 66 µM | > 66 µM | > 66 µM | > 66 µM | > 66 µM | CCOc1ccc(NCc2cc3c(-c4ccc(OC)c(OC)c4)nn(-c4ccccc4)c3[nH]c2=O)cc1 | IC50 ([3]; IL8, TNFa-induced, run 6): > 66 µM |
| 42.9 µM | 17 µM | 20.7 µM | 21.9 µM | > 66 µM | > 66 µM | > 66 µM | 40.3 µM | > 66 µM | > 66 µM | > 66 µM | 7.51 µM | > 66 µM | > 66 µM | 36.4 µM | > 66 µM | > 66 µM | > 66 µM | > 66 µM | > 66 µM | O=C(Nc1ccc(N2CCN(C(=O)c3ccccc3)CC2)cc1)c1cccnc1 | IC50 ([3]; IL8, TNFa-induced, run 6): > 66 µM |
